One experiment addresses BCL2 D103Y (Homo sapiens, UniProt P10415, D103Y). The experiment in a line: TR-FRET competitive binding assay, BCL2 D103Y. The conditions noted are these: Ki determined from IC50, read-out: TR_FRET EKI_Bcl2 D103Y. The method in brief: (§1)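 Competitive TR-FRET displacement of fluorescein-PUMA peptide (2 or 20 nM) from 0.5 nM terbium-labelled N-terminal Halo-fusion BCL2 (1-207, wild type or mutant) or BCLXL (2-196), expressed in E. coli. Buffer 50 mM Hepes pH 7.5, 150 mM NaCl, 5% DMSO; 2 h at 23°C. 520/495 nm ratio fitted over 11 points for IC50, converted to Ki.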

The test system of another experiment is KMS-12-PE Bcl-2 G101V. The experiment in a line: In vitro cytotoxicity CellTiter-Glo 48 h, KMS-12-PE Bcl-2 G101V. Format: cell-based. The conditions noted are these: for Ratio (G101V/WT): C50 KMS-12-PE Bcl-2 G101V over C50 KMS-12-PE Bcl-2 WT; for IC50: Homo sapiens, KMS-12-PE, 48 h, CellTiter-Glo, C50 = concentration needed to reach 50% of the cellular viability. The method, boiled down: (§2)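 CTG luminescence read-out; C50 = concentration reaching 50% cellular viability. Cells: KMS-12-PE expressing Bcl-2 WT or G101V (lentiviral, TagRFP-sorted). 11-pt curve, 48 h, 37 °C/5% CO2.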

The next experiment addresses BCLXL WT (Homo sapiens (Human), UniProt Q07817). The experiment in a line: TR-FRET competitive binding assay, BCLXL WT. Conditions: for Ki: BCLXL WT, Ki determined from IC50, read-out: TR_FRET EKI BclxL; for TR_FRET EKI BCLxL/WT selectivty ratio: ratio Ki BCLxL / Ki BCL2 WT. The method in brief:
as §1

The next experiment has as its system KMS-12-PE Bcl-2 WT. The experiment in a line: In vitro cytotoxicity CellTiter-Glo 48 h, KMS-12-PE Bcl-2 WT. Format: cell-based. Conditions: Homo sapiens, KMS-12-PE, C50 = concentration needed to reach 50% of the cellular viability. The method, boiled down: as §2
The target of experiment [1] is BCL2 G101V (Homo sapiens, UniProt P10415, G101V). The experiment in a line: TR-FRET competitive binding assay, BCL2 G101V. The conditions noted are these: BCL2 G101V; Ki determined from IC50; read-out: TR_FRET EKI_Bcl2 G101V. The method, boiled down: as §1
Experiment [2] concerns BCL2 G101V. The experiment in a line: TR-FRET competitive binding assay, BCL2 G101V. Details: species or system human. The conditions noted are these: ratio Ki BCL2 G101V / Ki BCL2 WT. The method, boiled down: as §1
For a further experiment, the target named is BCL2 WT (Homo sapiens (Human), UniProt P10415). The experiment in a line: TR-FRET competitive binding assay, BCL2 WT. The conditions noted are these: Ki determined from IC50, read-out: TR_FRET EKI_Bcl2 WT. The method, boiled down:
as §1

The structures appear in SMILES notation.

Sequence of BCLXL WT (Q07817 other isoform, or with tags, fused parts or gaps): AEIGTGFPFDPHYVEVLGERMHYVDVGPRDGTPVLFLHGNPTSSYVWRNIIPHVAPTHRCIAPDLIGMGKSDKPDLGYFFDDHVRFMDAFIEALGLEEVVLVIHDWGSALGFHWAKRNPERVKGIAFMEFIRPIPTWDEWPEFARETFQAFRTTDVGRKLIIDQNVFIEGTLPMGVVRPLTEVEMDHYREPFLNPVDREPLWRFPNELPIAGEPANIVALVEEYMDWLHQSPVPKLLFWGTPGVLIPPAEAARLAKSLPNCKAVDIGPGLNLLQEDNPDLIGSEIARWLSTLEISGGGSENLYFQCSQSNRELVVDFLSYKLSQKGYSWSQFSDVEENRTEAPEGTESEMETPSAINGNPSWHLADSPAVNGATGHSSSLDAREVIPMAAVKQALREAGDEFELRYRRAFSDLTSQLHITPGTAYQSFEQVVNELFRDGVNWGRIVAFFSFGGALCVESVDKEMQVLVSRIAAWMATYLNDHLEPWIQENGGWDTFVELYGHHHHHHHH

For `Cc1c(N(C(=O)c2cc(-c3cc4c(cc3C(=O)N3Cc5ccccc5C[C@H]3C)CN(C(=O)Cc3ccc(OCCN5CCOC6(CCCC6)C5)cc3)CC4)n(C)c2C)c2ccc(O)cc2)cc(C#N)n1C` [Example 73, N-(5-cyano-1,2-dimethyl-1H-pyrrol-3-yl)-N-(4-hydroxyphenyl)-1,2-dimethyl-5-{7-[(3R)-3-methyl-1,2,3,4-tetrahydroisoquinoline-2-carbonyl]-2-{2-[4-(2-{6-oxa-9-azaspiro[4.5]decan-9-yl}ethoxy)phenyl]acetyl}-1,2,3,4-tetrahydroisoquinolin-6-yl}-1H-pyrrole-3-carboxamide], the Ki was found to be 1.74 nM at BCL2 D103Y, 8.9 nM on BCLXL WT, 2.7 nM on BCL2 G101V [1] and 0.5 nM on BCL2 WT. Further, the “Ratio (G101V/WT)” value in the experiment on KMS-12-PE Bcl-2 G101V came to 5.25. The figures for the IC50 in the experiment with KMS-12-PE Bcl-2 G101V and in the experiment with KMS-12-PE Bcl-2 WT were 0.0298 µM and 0.0057 µM, respectively. Moreover, the “TR_FRET EKI BCLxL/WT selectivty ratio” value on BCLXL WT turned out to be 17.8. In addition, the “TR_FRET EKI G101V/WT selectivty ratio” value in the experiment with BCL2 G101V [2] is 5.4.
For `Cc1c(N(C(=O)c2cc(-c3cc4c(cc3C(=O)N3Cc5ccccc5C[C@H]3CN3CCCCC3)CN(C(=O)Cc3ccc(OCCN5CCC(F)CC5)cc3)CC4)n(C)c2C)c2ccc(O)cc2)cc(C#N)n1C` [Example 76, N-(5-cyano-1,2-dimethylpyrrol-3-yl)-5-[2-(2-{4-[2-(4-fluoropiperidin-1-yl)ethoxy]phenyl}acetyl)-7-{[(3S)-3-(piperidin-1-ylmethyl)-3,4-dihydro-1H-isoquinolin-2-yl]carbonyl}-3,4-dihydro-1H-isoquinolin-6-yl]-N-(4-hydroxyphenyl)-1,2-dimethylpyrrole-3-carboxamide], the Ki stood at 0.18 nM on BCL2 D103Y, 1.8 nM on BCLXL WT, 0.3 nM at BCL2 G101V [1] and 0.06 nM on BCL2 WT. Further, the “Ratio (G101V/WT)” value in the experiment on KMS-12-PE Bcl-2 G101V is reported as 5.28. Besides, the IC50 with KMS-12-PE Bcl-2 G101V came to 0.0871 µM; in the experiment on KMS-12-PE Bcl-2 WT, 0.0165 µM. Besides, on BCLXL WT, the “TR_FRET EKI BCLxL/WT selectivty ratio” value is listed as 32.7. Moreover, the “TR_FRET EKI G101V/WT selectivty ratio” value in the experiment with BCL2 G101V [2] worked out at 5.5.
For the molecule `Cc1c(N(C(=O)c2cc(-c3cc4c(cc3C(=O)N3Cc5ccccc5C[C@H]3CN3CC[C@@H](F)C3)CN(C(=O)Cc3ccc(OCCC5CCOCC5)cc3)CC4)n(C)c2C)c2ccc(O)cc2)cc(C#N)n1C` [Example 79, N-(5-cyano-1,2-dimethylpyrrol-3-yl)-5-(7-{[(3S)-3-{[(3R)-3-fluoropyrrolidin-1-yl]methyl}-3,4-dihydro-1H-isoquinolin-2-yl]carbonyl}-2-(2-{4-[2-(oxan-4-yl)ethoxy]phenyl}acetyl)-3,4-dihydro-1H-isoquinolin-6-yl)-N-(4-hydroxyphenyl)-1,2-dimethylpyrrole-3-carboxamide], the Ki was determined as 0.75 nM at BCL2 D103Y, 3.9 nM at BCLXL WT, 1.5 nM at BCL2 G101V [1] and 0.26 nM on BCL2 WT. The “Ratio (G101V/WT)” value in the experiment with KMS-12-PE Bcl-2 G101V is on record as 4.85. Besides, the IC50 with KMS-12-PE Bcl-2 G101V is 0.0592 µM; with KMS-12-PE Bcl-2 WT, 0.0122 µM. At BCLXL WT, the “TR_FRET EKI BCLxL/WT selectivty ratio” value is on record as 15.0. Moreover, the “TR_FRET EKI G101V/WT selectivty ratio” value in the experiment with BCL2 G101V [2] is 5.8.
Turning to `Cc1c(N(C(=O)c2cc(-c3cc4c(cc3C(=O)N3Cc5ccccc5C[C@H]3CN3CC[C@@H](F)C3)CN(C(=O)Cc3ccc(OCCN5CCOCC5)cc3F)CC4)n(C)c2C)c2ccc(O)cc2)cc(C#N)n1C` [Example 80, N-(5-cyano-1,2-dimethylpyrrol-3-yl)-5-[2-(2-{2-fluoro-4-[2-(morpholin-4-yl)ethoxy]phenyl}acetyl)-7-{[(3S)-3-{[(3R)-3-fluoropyrrolidin-1-yl]methyl}-3,4-dihydro-1H-isoquinolin-2-yl]carbonyl}-3,4-dihydro-1H-isoquinolin-6-yl]-N-(4-hydroxyphenyl)-1,2-dimethylpyrrole-3-carboxamide], the Ki at BCL2 D103Y is 0.14 nM; on BCLXL WT, 1.2 nM; on BCL2 G101V [1], 0.3 nM; on BCL2 WT, 0.06 nM. Moreover, in the experiment on KMS-12-PE Bcl-2 G101V, the “Ratio (G101V/WT)” value is on record as 5.66. Also, the IC50 in the experiment on KMS-12-PE Bcl-2 G101V came out at 0.0534 µM; in the experiment on KMS-12-PE Bcl-2 WT, 0.0094 µM. Also, on BCLXL WT, the “TR_FRET EKI BCLxL/WT selectivty ratio” value stood at 21.1. The “TR_FRET EKI G101V/WT selectivty ratio” value in the experiment with BCL2 G101V [2] is reported as 4.9.
Consider `Cc1c(N(C(=O)c2cc(-c3cc4c(cc3C(=O)N3Cc5ccccc5C[C@H]3CN3CCCCC3)CN(C(=O)Cc3ccc(OCCN5CCC(F)(F)C5)cc3)CC4)n(C)c2C)c2ccc(O)cc2)cc(C#N)n1C` [Example 82, N-(5-cyano-1,2-dimethylpyrrol-3-yl)-5-[2-(2-{4-[2-(3,3-difluoropyrrolidin-1-yl)ethoxy]phenyl}acetyl)-7-{[(3S)-3-(piperidin-1-ylmethyl)-3,4-dihydro-1H-isoquinolin-2-yl]carbonyl}-3,4-dihydro-1H-isoquinolin-6-yl]-N-(4-hydroxyphenyl)-1,2-dimethylpyrrole-3-carboxamide], for which the Ki on BCL2 D103Y is 0.35 nM; at BCLXL WT, 6.3 nM; on BCL2 G101V [1], 1.2 nM; at BCL2 WT it was 0.19 nM. Besides, in the experiment with KMS-12-PE Bcl-2 G101V, the “Ratio (G101V/WT)” value is 6.45. The 50% inhibitory concentration (IC50) with KMS-12-PE Bcl-2 G101V worked out at 0.0572 µM; in the experiment with KMS-12-PE Bcl-2 WT it was 0.0095 µM. Besides, on BCLXL WT, the “TR_FRET EKI BCLxL/WT selectivty ratio” value was 33.9. In addition, the “TR_FRET EKI G101V/WT selectivty ratio” value with BCL2 G101V [2] was 6.7.
For the molecule `Cc1c(N(C(=O)c2cc(-c3cc4c(cc3C(=O)N3Cc5ccccc5C[C@H]3CN3CCCCC3)CN(C(=O)Cc3cc(F)c(OCCN5CCOCC5)cc3F)CC4)n(C)c2C)c2ccc(O)cc2)cc(C#N)n1C` [Example 83, N-(5-cyano-1,2-dimethylpyrrol-3-yl)-5-[2-(2-{2,5-difluoro-4-[2-(morpholin-4-yl)ethoxy]phenyl}acetyl)-7-{[(3S)-3-(piperidin-1-ylmethyl)-3,4-dihydro-1H-isoquinolin-2-yl]carbonyl}-3,4-dihydro-1H-isoquinolin-6-yl]-N-(4-hydroxyphenyl)-1,2-dimethylpyrrole-3-carboxamide], the Ki at BCL2 D103Y amounted to 0.21 nM; at BCLXL WT, 9.3 nM; at BCL2 G101V [1], 0.9 nM; at BCL2 WT it was 0.09 nM. The “Ratio (G101V/WT)” value with KMS-12-PE Bcl-2 G101V was 8.1. For the same molecule, the IC50 is 0.0958 µM in the experiment on KMS-12-PE Bcl-2 G101V and 0.0125 µM with KMS-12-PE Bcl-2 WT. Moreover, the “TR_FRET EKI BCLxL/WT selectivty ratio” value at BCLXL WT came out at 109.4. Moreover, the “TR_FRET EKI G101V/WT selectivty ratio” value in the experiment on BCL2 G101V [2] stood at 10.9.
Regarding `Cc1c(C(=O)N(c2ccc(O)cc2)c2cnn(C)c2)cc(-c2cc3c(cc2C(=O)N2Cc4ccccc4C[C@H]2C)CN(C(=O)Cc2ccc(OCCC4CCOCC4)cc2)CC3)n1C` [Example 85, N-(4-hydroxyphenyl)-1,2-dimethyl-5-(7-{[(3R)-3-methyl-3,4-dihydro-1H-isoquinolin-2-yl]carbonyl}-2-(2-{4-[2-(oxan-4-yl)ethoxy]phenyl}acetyl)-3,4-dihydro-1H-isoquinolin-6-yl)-N-(1-methylpyrazol-4-yl)pyrrole-3-carboxamide], the Ki is 0.39 nM at BCL2 D103Y, 9.8 nM on BCLXL WT, 1.1 nM on BCL2 G101V [1] and 0.32 nM at BCL2 WT. Moreover, in the experiment on KMS-12-PE Bcl-2 G101V, the “Ratio (G101V/WT)” value is 8.42. Further, the IC50 is 0.051 µM with KMS-12-PE Bcl-2 G101V and 0.0061 µM in the experiment with KMS-12-PE Bcl-2 WT. For the same molecule, the “TR_FRET EKI BCLxL/WT selectivty ratio” value at BCLXL WT was 30.6. For the same molecule, the “TR_FRET EKI G101V/WT selectivty ratio” value with BCL2 G101V [2] turned out to be 3.3.
Regarding `Cc1c(N(C(=O)c2cc(-c3cc4c(cc3C(=O)N3Cc5ccccc5C[C@H]3CN3CCCCC3)CN(C(=O)Cc3ccc(OCCN(C)C5CC5)cc3F)CC4)n(C)c2C)c2ccc(O)cc2)cc(C#N)n1C` [Example 88, N-(5-cyano-1,2-dimethylpyrrol-3-yl)-5-{2-[2-(4-{2-[cyclopropyl(methyl)amino]ethoxy}-2-fluorophenyl)acetyl]-7-{[(3S)-3-(piperidin-1-ylmethyl)-3,4-dihydro-1H-isoquinolin-2-yl]carbonyl}-3,4-dihydro-1H-isoquinolin-6-yl}-N-(4-hydroxyphenyl)-1,2-dimethylpyrrole-3-carboxamide], the Ki at BCL2 D103Y amounted to 0.27 nM; at BCLXL WT, 1.7 nM; at BCL2 G101V [1], 0.6 nM; on BCL2 WT it was 0.1 nM. Moreover, the “Ratio (G101V/WT)” value in the experiment on KMS-12-PE Bcl-2 G101V worked out at 4.67. The IC50 in the experiment with KMS-12-PE Bcl-2 G101V stood at 0.0296 µM; with KMS-12-PE Bcl-2 WT it was 0.0063 µM. Further, at BCLXL WT, the “TR_FRET EKI BCLxL/WT selectivty ratio” value was 17.0. The “TR_FRET EKI G101V/WT selectivty ratio” value with BCL2 G101V [2] was 5.9.

Values taken from US20250179047A1, “5-[7-(3,4-DIHYDRO-1H-ISOQUINOLINE-2-CARBONYL)-1,2,3,4 TETRAHYDROISOQUINOLIN-6-YL]-1H-PYRROLE-3-CARBOXAMIDE DERIVATIVES, PHARMACEUTICAL COMPOSITIONS CONTAINING THEM AND THEIR USES AS PRO-APOPTOTIC AGENTS” (LES LABORATOIRES SERVIER, priority 2022, published 2025).
